Test: Membrane fatty acid analysis in red blood cells (GC-MS) of UC patients given EPA-FFA
Assay type: in vivo, human
Experimental: A study will be conducted with patients having long-standing UC. Specifically, about 20 long-standing UC patients in stable clinical remission (SCCAI=0) and with fecal calprotectin (FC)>150 μg/g measured in stools are recruited and treated with 2 g/day of EPA-FFA for 90 days. Biopsies and biological samples are collected at the entry (TO) and at the end of the study (T3). Compliance is evaluated by EPA incorporation into red blood cell membranes. Protein levels of Jagged1, Hes1, STAT3, phospho-STAT3 and KLF-4 are determined by western blotting. IL-22, IL-10 and SOCS3 mRNA levels are analyzed by qRT-PCR. Goblet cells are stained by Alcian blue. Microbiota analyses are performed on fecal and biopsies DNA samples sequencing the V3-V4 region of the bacterial 16S rRNA gene. As a reference, a healthy adult population is used. Endoscopic and histologic disease activities are measured by Mayo and Geboes scores respectively.
Since EPA can be converted into the m-3 PUFA docosahexaenoic acid (DHA) in vivo through docosapentaenoic acid (DPA) (19), the overall ω-3 PUFAs content is also measured including EPA, DPA and DHA, in the patients.
Eligible patients are asymptomatic subjects aged 18-70 years with long-standing (≥8 years) UC, in stable clinical remission (simple clinical colitis activity index; SCCAI=0), and FC levels higher than 150 μg/g (53). Exclusion criteria are (1) recent use of steroids (<2 months) or other experimental drugs (<3 months); (2) concomitant use of anticoagulants; (3) probiotic use; (4) pregnancy or breast-feeding; (5) known or suspected hypersensitivity to eicosapentaenoic acid or ω-3 PUF As; and (6) severe co-morbidities. […] Adherence to EPA-FFA supplementation is evaluated both by capsule counting and assessing EPA incorporation into red blood cell (RBC) membranes. […]
Membrane fatty acids content is measured in RBCs. […] Extracted fatty acid methyl-esters are then analyzed by gas-chromatography mass-spectrometry (GC-MS). Fatty acid levels are expressed as relative percentages of total fatty acids.

[1] = short-term EPA-FFA supplementation, long-standing UC patients

EPA in RBC-purified membranes (UC patients, 2 g/day EPA-FFA for 90 days): significant increase
EPA and overall ω-3 PUFAs content (EPA, DPA and DHA) into RBCs [1]: increase
patients who incorporated EPA into RBCs [1]: 17/19
SMILES: CC/C=C\C/C=C\C/C=C\C/C=C\C/C=C\CCCC(=O)O [EPA-FFA, eicosapentaenoic acid]

— patent US20250319052A1, “TREATMENT WITH HIGHLY PURIFIED EICOSAPENT AENOIC ACID AS FREE FATTY ACID IMPROVES INFLAMMATION, AFFECTS COLONIC DIFFERENTIATION MARKERS AND MICROBIOTA IN PATIENTS WITH ULCERATIVE COLITIS” (KD SWISS GMBH, priority 2019, published 2025)
